Source: US20170209403A1, “METHOD FOR REGULATING ALDEHYDE DEHYDROGENASE 1” (National Cheng Kung University, priority 2016, published 2017)

Key:
[1] = test system: A2780 and CP70 ovarian cancer cells; assay: Sphere formation assay; format: cell-based, human; conditions: A2780-High and CP70-High cells; 10 μM ATRA for 28 days
Experimental: FIGS. 1A-1F show ALDH1 regulates stemness and tumourigenic ability in ovarian cancer cells. […] A total of 1×10^3 A2780 (upper panel) and CP70 (lower panel) cells were seeded into a 96-well plate to evaluate the cells' sphere formation ability (scale bar=200 μm). DEAB was used to inhibit the reaction of ALDH1 and also served as a negative control. […] The β-actin was used as a protein loading control. The histogram represents the relative fold change of protein expression (right panel). […] A2780-ALDH1 (upper panel) and CP70-shALDH1 (lower panel) cells were seeded into 96-well plates to evaluate their sphere formation ability (scale bar=200 μm).
FIGS. 2A-2D show ALDH1 regulates stemness and tumourigenic ability through the FoxM1 and Notch1 signalling pathways. […] Representative images show spheres generated from single-cell cultures after 10 days. The lower panel depicts the relative sphere formation ratio (scale bar=200 μm). […] V: vector.
(§1) Standard sphere formation assays were performed according to Zhang et al. (Zhang, S. et al. Cancer Res., 68, 4311-4320.) with minor modification. The cells (1×10^3) were resuspended in serum-free DMEM/F12 medium supplemented with 5 μg/ml insulin (Sigma), 20 ng/ml human recombinant epidermal growth factor (EGF; Invitrogen, Life Technologies, Carlsbad, Calif.) and 10 ng/ml basic fibroblast growth factor (bFGF; Invitrogen) in ultra-low attachment plates (Corning Costar, Corning, N.Y.). Spheres that arose within 1-2 weeks were counted. Colony diameters >50 μm were counted as a single-positive colony. The middle field was chosen for counting of spheres, and two fields for each plate were counted under a dissecting microscope. For all sphere formation experiments, a minimum of eight wells was run for each condition. All data represent the mean ±SEM of three separate experiments and at least 24 different fields.
(§2) An Aldefluor® kit (StemCell Technologies) was used to assess ALDH activity in the ovarian cancer cell lines, as previously described (Saw, Y. T. et al. (2012) BMC Cancer, 12, 329.). In brief, 1×10^6 cells were incubated in Aldefluor® assay buffer containing a 1.5 μM ALDH substrate for 30 min at 37° C. Each sample was treated with 50 μM of DEAB, and used as a negative control. Prior to analysis, cells were stained with […] of propidium iodide to evaluate their viability. The fluorescence intensity of the stained cells was analysed using a FACSAria cell sorter Flow Cytometer (BD Biosciences). The reaction with DEAB was used to define the baseline for the assay. The ALDH activity of a sample was determined to be ‘high’ or ‘low’ based on the fluorescence intensity beyond or below the threshold defined by the reaction with DEAB. The cells having high or low ALDH activity are marked “-High” or “-Low” hereafter.

CP70-High cells = assay: Tumourigenesis of ATRA-pretreated cells in mouse xenograft; format: in vivo, NOD/SCID mice
Experimental: (§3) All animal studies adhered to protocols approved by the Institutional Animal Care and Use Committee of National Cheng Kung University Medical Centre. The mouse xenograft model was prepared as previously reported (Molthoff, C. F. et al. (1991) Int. J. Cancer, 47, 72-79). Briefly, cells were implanted in 50% Matrigel (BD Biosciences, San Jose, Calif.) and injected subcutaneously into the left flanks of 4- to 6-week-old female NOD/SCID (NOD.CB17-PRKDC (SCID)) mice. We observed mice for tumour formation every other day after cell inoculation and measured tumour size when it became measurable. Tumour size was measured using Vernier callipers by external measurement of the length and width, and the tumour volume was computed from the formula for an ellipsoid body […]. When the tumours reached ˜2000 mm^3 at approximately 28 days, the mice were sacrificed. […] All tumours were excised, fixed in 10% neutral buffered formalin, and embedded in paraffin for histological assessment or shock-frozen in liquid N2 and stored at −80° C. for further analysis.
We then inoculated 1×10^4 ATRA-pretreated A2780-High or CP70-High cells into mice. […] However, these findings were not observed in ES2-Low cells (FIG. 4A and FIG. 4B).

A2780-High cells = assay: as above; format: in vivo, NOD/SCID mice
Experimental: Briefly, cells were implanted in 50% Matrigel (BD Biosciences, San Jose, Calif.) and injected subcutaneously into the left flanks of 4- to 6-week-old female NOD/SCID (NOD.CB17-PRKDC (SCID)) mice. We observed mice for tumour formation every other day after cell inoculation and measured tumour size when it became measurable. Tumour size was measured using Vernier callipers by external measurement of the length and width, and the tumour volume was computed from the formula for an ellipsoid body [volume=(length/2)×(width)]. When the tumours reached ˜2000 mm^3 at approximately 28 days, the mice were sacrificed. […] All tumours were excised, fixed in 10% neutral buffered formalin, and embedded in paraffin for histological assessment or shock-frozen in liquid N2 and stored at −80° C. for further analysis.

ES2-High cells [2] = assay: Transwell migration assay; format: cell-based, human; conditions: ATRA
Experimental: (§4) Right panel: relative fold changes of ALDH1 and FoxM1 expression compared with controls. […] Sphere formation in ES2-High cells after treatment with different concentrations of Thiostrepton or DAPT, and the relative fold changes in expression are shown (scale bar=200 μm).
(§5) Cells (1×10^5) were seeded on Transwell filters with a pore size of 8 μm (Corning Costar) and were allowed to migrate toward medium containing 10% FBS. After 8 h, the cells on the upper surface of the Transwell membrane were removed with a cotton swab, and the migrated cells (on the underside of the Transwell) were fixed and stained with methanol and Giemsa staining dye (Merck, Darmstadt, Germany). The invasion assay was conducted in the same manner as the migration assay, except that Matrigel (BD Biosciences) was used, the incubation time differed (24 h) and the number of cells added to the upper chamber was 2×10^5 cells. Cell migration and invasion were quantified by counting the migrated cells in six random fields under a light microscope.

A2780-High tumour = assay: Antitumour efficacy of ATRA in mouse xenografts; format: in vivo, NOD/SCID mice
Experimental: (§6) Cell suspensions of 1×10^6 A2780-High or CP70-High cells were inoculated subcutaneously into mice.
as §3, §6

CP70-High tumour = assay: Antitumour efficacy of ATRA in mouse xenografts; format: in vivo, NOD/SCID mice; conditions: 1×10^6 cells s.c.; ATRA 0.05 or 0.1 mg into the peritoneal cavity three times per week; at 22 days after tumour cell inoculation
Experimental: as §6, §3, §6

[3] = test system: ES2 cells (ES2-High, ES2-Low); assay: Sphere formation assay; format: cell-based, human; conditions: ES2-High cells; ATRA (10 μM)
Experimental: as §4, §1, §2

[4] = test system: A2780-High and CP70-High cells; assay: Transwell invasion assay; format: cell-based, human; conditions: 10 μM ATRA for 28 days
Experimental: as §5

ES2-High cells [5] = assay: MTT cytotoxicity assay (proliferation, doubling time); format: cell-based, human; conditions: ATRA
Experimental: as §4
(§7) The cell lines were cultured in a humidified incubator containing 95% air and 5% CO2 at 37° C. in 96-well flat-bottomed microtiter plates. After 72 h of incubation, the in vitro cytotoxic effects of treatments were determined by MTT assay (at 570 nm).

ALDH1 [6] = assay: Aldefluor assay of ALDH1 enzyme activity / ALDH1-High cell fraction; format: cell-based, human
Experimental: as §2

[7] = test system: A2780 and CP70 ovarian cancer cells; assay: MTT cytotoxicity assay (proliferation, doubling time); format: cell-based, human; conditions: A2780-High and CP70-High cells; ATRA treatment
Experimental: as §7

[8] = test system: ALDH1, FoxM1 and Notch-1 expression in ES2 cells; assay: Western blotting of ALDH1, FoxM1 and Notch1; format: cell-based, human; conditions: ES2-High cells; ATRA
ALDH1 [9] = assay: Immunohistochemical staining for ALDH1 in tumour tissue sections
[10] = test system: ALDH1, FoxM1, Notch1, Oct-4 and Nanog expression in A2780 and CP70 cells; assay: Western blotting of ALDH1, FoxM1, Notch1 and CSC markers; format: cell-based, human; conditions: A2780-High and CP70-High cells; 10 μM ATRA for 28 days
[11] = test system: A2780-High and CP70-High cells; assay: Transwell migration assay; format: cell-based, human; conditions: 10 μM ATRA for 28 days
Experimental: as §5

[12] = 1×10^4 cells pretreated with ATRA (10 μM) for 28 days, inoculated into mice
[13] = CP70-High cells pretreated with ATRA, 1 × 10^4 cells injected

CC1=C(/C=C/C(C)=C/C=C/C(C)=C/C(=O)O)C(C)(C)CCC1 [ATRA, all-trans retinoic acid]
sphere formation ability [1]: significantly reduced | tumour size (CP70-High cells; [12]): significant reduction of tumour size | Number of tumours/number of injections (CP70-High cells; [13]): 4/5 | average tumour volume (CP70-High cells; [13]): (545) mm^3 | Tumour-initiating cell frequency (CP70-High cells; CP70-High cells pretreated with ATRA, calculated with ELDA software): 1/6213 | tumour formation ability (A2780-High cells; [12]): almost completely abrogated | Number of tumours/number of injections (A2780-High cells; A2780-High cells pretreated with ATRA, 1 × 10^4 cells injected): 4/9 | cell migration ability (ES2-High cells [2]): inhibited | tumour growth (A2780-High tumour; 1×10^6 cells s.c., ATRA 0.05 or 0.1 mg into the peritoneal cavity three times per week): inhibited A2780-High tumour growth in a dose-dependent manner | effective dose for mice (A2780-High tumour; mouse xenografts, administered doses 0.05 and 0.1 mg): at least 0.05 mg | tumour growth (CP70-High tumour): significantly suppressed | sphere formation ability [3]: inhibited | cell invasion ability [4]: significantly reduced | proliferation (cell doubling time) (ES2-High cells [5]): did not affect proliferation | ALDH1 activity (ALDH1 [6]; A2780-High and CP70-High cells, 10 μM ATRA for 28 days): significantly reduced | proportion of ALDH1-High cells (ALDH1 [6]; A2780-Low and CP70-Low cells, ATRA (10 μM) or paclitaxel (60 ng/ml) for 4 days): decreased the proportion of ALDH1-High ovarian cancer cells | proliferation (cell doubling time) [7]: did not affect proliferation | ALDH1 expression [8]: inhibited | FoxM1 expression [8]: inhibited | Notch1 expression [8]: inhibited | ALDH1 expression in tumour cells from tissue sections (ALDH1 [9]; ATRA-treated mice compared with control mice): downregulated | ALDH1 expression in tumour cells (immunostaining) (ALDH1 [9]; tumours from ATRA-pretreated ALDH1-High cells): reduced ALDH1 expression | ALDH1 expression [10]: significantly reduced | FoxM1 expression [10]: significantly reduced | Notch1 expression [10]: significantly reduced | cell migration ability [11]: significantly reduced
